The values below come from US12460215B2, “Bacillus expression system” (WILLIAM MARSH RICE UNIVERSITY, priority 2018, dated 2025).

Assay [1] deals with LacI lactose operon repressor (SEQ ID NO 11), LacI-T7 system (Phy-spank-T7 RNAP / PT7lac, sfgfp reporter). Briefly: IPTG dose response of the LacI-T7 inducible promoter system (steady state transfer function, sfGFP fluorescence by flow cytometry). In kind it is cell-based, B. subtilis PY79. As to conditions: Hill function fit. From the text: (§1) FIG. 1E sfGFP Fluorescence from LacI-T7 and Phy-spank as a function of IPTG concentration.
Next, we measured the steady state transfer function of both systems by growing the corresponding strains under different concentrations of IPTG. In both cases, sfGFP fluorescence increases as a function of IPTG concentration in a manner well-approximated by a Hill function (FIG. 1E).
For each experiment, an overnight LB culture was started from the freezer stock of each relevant strain. The next day, saturated cultures (OD600˜3) were diluted 10^5-fold in M9. […]
(§2) The sfGFP fluorescence distribution of each culture was measured using a BD FACScan flow cytometer with an excitation source of 488 nm and an emission window of 510/21 nm. […] A suspension of calibration beads (Spherotech® RCP-30-5A) in PBS was measured with each experiment. […]
Cell populations were gated by forward scatter/side scatter density (not shown) retaining 50% of the total number of events. Next, fluorescence of each gated event in arbitrary units was converted into standardized MEFL values using the calibration bead data. The total cellular fluorescence of each culture sample was then obtained by calculating the median MEFL fluorescence of all gated events in that sample. […] Numerical sfGFP fluorescence values of every sample and replicate can be found in Table 1.
(In general: Flow cytometry measures light scatter and fluorescence of single cells or particles in a stream.)

Assay [2] concerns LacI lactose operon repressor (SEQ ID NO 11), Phy-spank system (sfgfp reporter). Briefly: IPTG dose response of the Phy-spank inducible promoter system (steady state transfer function, sfGFP fluorescence by flow cytometry). The class given is cell-based, B. subtilis PY79. As to conditions: Hill function fit.
From the text: as §1
Phy-spank is a variant of the IPTG-inducible promoter Pspac optimized for higher expression and dynamic range, and is perhaps the most widely used B. subtilis inducible promoter system. We constructed a second B. subtilis strain wherein sfgfp* was expressed under the control of Phy-spank, RiboJ, and RBS MF001 to compare its performance to that of LacI-T7.
Next, we measured the steady state transfer function of both systems by growing the corresponding strains under different concentrations of IPTG. In both cases, sfGFP fluorescence increases as a function of IPTG concentration in a manner well-approximated by a Hill function (FIG. 1E). […]
as §2
Cell populations were gated by forward scatter/side scatter density (not shown) retaining 50% of the total number of events. Next, fluorescence of each gated event in arbitrary units was converted into standardized MEFL values using the calibration bead data. […] Numerical sfGFP fluorescence values of every sample and replicate can be found in Table 1.

Where [3] appears, read: Bacillus subtilis, IPTG detection threshold, sfGFP fluorescence, read-out: 50% activation concentration.
[4] abbreviates: sfGFP fluorescence as a function of IPTG concentration.

Broadly, the Hill coefficient is a measure of the steepness of the concentration-response curve.

As for `CC(C)S[C@@H]1O[C@H](CO)[C@H](O)[C@H](O)[C@H]1O` [IPTG, Isopropyl β-D-1-thiogalactopyranoside], the results for the EC50 in assay [1] (setting [3]) and in assay [2] (setting [3]) were 54.1 ± 1.6 µM and 50.2 ± 1.5 µM, respectively. For the same compound, the results for the Hill coefficient in assay [1] (setting [4]) and in assay [2] (setting [4]) were 3.377±0.051 and 2.120±0.033, respectively.
